# From US20060223996A1, “IL-12 modulatory compounds” (Synta Pharmaceuticals Corp., priority 2004, published 2006)
# pIC50: −log10 of the molar value.
# System: IL-12
# Assay: Human in vitro assay: inhibition of IL-12 production in IFNγ/LPS- or IFNγ/SAC-stimulated human PBMC or THP-1 cells (ELISA)
# Assay type: cell-based
# Settings: read-out: IC50 Range (representative in vitro IC50 data)
# From the text: The biological activities of a heterocyclic compound can be evaluated by a number of cell-based assays. One of such assays can be conducted using cells from human peripheral blood mononuclear cells (PBMC) or human monocytic cell line (THP-1). The cells are stimulated with a combination of human interferon-γ (IFNγ) and lipopolysaccharide or a combination of IFNγ and Staphylococcus aureus Cowan I in the presence of a test compound. The level of inhibition of IL-12 production can be measured by determining the amount of p70 by using a sandwich ELISA assay with anti-human IL-12 antibodies. IC50 of the test compound can then be determined. Specifically, PBMC or THP-1 cells are incubated with the test compound. Cell viability was assessed using the bioreduction of MTS [3-(4,5-dimethylthiazol-2-yl)-5-(3-carboxymethoxyphenyl)-2-(4-sulfophenyl)-2H-tetrazolium](Promega, Madison, Wis.).
# Human In Vitro Assay. Human PBMC were isolated by centrifugation using Ficoll-Paque (Pharmacia Biotech, Uppsala, Sweden) and prepared in RPMI medium supplemented with 10% fetal calf serum (FCS), 100 U/mL penicillin, and 100 μg/mL streptomycin. PBMC were plated in wells of a 96-well plate at a concentration of 5×10^5 cells/well, and primed by adding IFNγ (30 U/mL) for 22 h and stimulated by adding LPS (1 μg/mL), or by adding IFNγ (100 U/mL) and then stimulated by adding SAC (0.01%). A test pyrimidine compound was dissolved in DMSO, and added to wells of the 96-well plate. The final DMSO concentration was adjusted to 0.25% in all cultures, including the compound-free control. Human THP-1 cells were plated in wells, primed by adding IFNγ (100 U/mL) for 22 h and stimulated by adding SAC (0.025%) in the presence of different concentrations of the pyrimidine compound. Cell-free supernatants were taken 18 h later for measurement of cytokines. Cell viability was assessed using the bioreduction of MTS. Cell survival was estimated by determining the ratio of the absorbance in compound-treated groups versus compound-free control.
# The supernatant was assayed for the amount of IL-12p40, IL-12p70, or IL-10 by using a sandwich ELISA with anti-human antibodies, i.e., a Human IL-12 p40 ELISA kit from R&D Systems (Berkeley, Calif.), and a Human IL-12 p70 or IL-10 ELISA kit from Endogen (Cambridge, Mass.). Assays were based on the manufacturer's instructions.
# The biological activities of pyrimidine compounds were tested on human PBMC or THP-1 cells.
row,Compound,pIC50
1,"O=C(Nc1ccc2[nH]c3c(c2c1)CCCC3)c1cc(OCCN2CCOC2=O)nc(N2CCOCC2)n1 [Compound 223, 2-Morpholin-4-yl-6-[2-(2-oxo-oxazolidin-3-yl)-ethoxy]-pyrimidine-4-carboxylic acid (6,7,8,9-tetrahydro-5H-carbazol-3-yl)-amide]",> 6.00
2,"COCCN(C)c1cc(C(=O)Nc2cccc(C(=O)c3ccccc3)c2)nc(N2CCOCC2)n1 [Compound 232, 6-[(2-Methoxy-ethyl)-methyl-amino]-2-morpholin-4-yl-pyrimidine-4-carboxylic acid (3-benzoyl-phenyl)-amide]",≤ 6.00
3,"CNc1cc(NC(=O)c2cc(OCCN3CCOCC3)nc(N3CCOCC3)n2)ccc1C [Compound 291, 2-Morpholin-4-yl-6-(2-morpholin-4-yl-ethoxy)-pyrimidine-4-carboxylic acid (4-methyl-3-methylamino-phenyl)-amide]",> 6.00
4,"COCCN(C)c1cc(C(=O)Nc2ccc(C(C)C)c(C)c2)nc(N2CCOCC2)n1 [Compound 229, 6-[(2-Methoxy-ethyl)-methyl-amino]-2-morpholin-4-yl-pyrimidine-4-carboxylic acid (4-isopropyl-3-methyl-phenyl)-amide]",≤ 6.00
5,"COCCN(C)c1cc(C(=O)Nc2ccc(NC(C)=O)cc2)nc(N2CCOCC2)n1 [Compound 165, 6-[(2-Methoxy-ethyl)-methyl-amino]-2-morpholin-4-yl-pyrimidine-4-carboxylic acid (4-acetylamino-phenyl)-amide]",≤ 6.00
6,"Cc1cccc(C(=O)Nc2nc(OCCc3ccccn3)cc(N3CCOCC3)n2)c1 [Compound 75, 3-Methyl-N-[4-morpholin-4-yl-6-(2-pyridin-2-yl-ethoxy)-pyrimidin-2-yl]-benzamide]",≤ 6.00
7,"COCCN(C)c1cc(C(=O)Nc2cc(C)ns2)nc(N2CCOCC2)n1 [Compound 239, 6-[(2-Methoxy-ethyl)-methyl-amino]-2-morpholin-4-yl-pyrimidine-4-carboxylic acid (3-methyl-isothiazol-5-yl)-amide]",≤ 6.00
8,"Cc1[nH]c2ccc(NC(=O)c3cc(OCCN4CCOCC4)nc(N4CCOCC4)c3)cc2c1C [Compound 66, N-(2,3-Dimethyl-1H-indol-5-yl)-2-morpholin-4-yl-6-(2-morpholin-4-yl-ethoxy)-isonicotinamide]",≤ 6.00
9,"COCCN(C)c1cc(C(=O)Nc2cccc(-n3cccn3)c2)nc(N2CCOCC2)n1 [Compound 311, 6-[(2-Methoxy-ethyl)-methyl-amino]-2-morpholin-4-yl-pyrimidine-4-carboxylic acid (3-pyrazol-1-yl-phenyl)-amide]",> 6.00
10,"O=C(Nc1ccc2[nH]ccc2c1)Nc1cc(OCCN2CCOCC2)nc(N2CCOCC2)n1 [Compound 137, 1-(1H-Indol-5-yl)-3-[2-morpholin-4-yl-6-(2-morpholin-4-yl-ethoxy)-pyrimidin-4-yl]-urea]",> 6.00
11,"Cc1cccc(NC(=O)Nc2cc(N3CCOCC3)nc(OCCc3ccccn3)n2)c1 [Compound 68, 1-[6-Morpholin-4-yl-2-(2-pyridin-2-yl-ethoxy)-pyrimidin-4-yl]-3-m-tolyl-urea]",≤ 6.00
12,"Cc1cc(C)cc(NC(=O)c2cc(OCCN3CCOCC3)nc(N3CCOCC3)n2)c1 [Compound 282, 2-Morpholin-4-yl-6-(2-morpholin-4-yl-ethoxy)-pyrimidine-4-carboxylic acid (3,5-dimethyl-phenyl)-amide]",> 6.00
13,"Cc1[nH]c2ccc(NC(=O)c3cc(NCC(=O)N4CCOCC4)nc(N4CCOCC4)n3)cc2c1C [Compound 89, 2-Morpholin-4-yl-6-(2-morpholin-4-yl-2-oxo-ethylamino)-pyrimidine-4-carboxylic acid (2,3-dimethyl-1H-indol-5-yl)-amide]",> 6.00
14,"Cn1c(=O)oc2cc(NC(=O)Nc3cc(OCCN4CCOCC4)nc(N4CCOCC4)n3)ccc21 [Compound 134, 1-(3-Methyl-2-oxo-2,3-dihydro-benzooxazol-6-yl)-3-[2-morpholin-4-yl-6-(2-morpholin-4-yl-ethoxy)-pyrimidin-4-yl]-urea]",≤ 6.00
15,"COCCN(C)c1cc(C(=O)Nc2nnc(C(C)(C)C)s2)nc(N2CCOCC2)n1 [Compound 236, 6-[(2-Methoxy-ethyl)-methyl-amino]-2-morpholin-4-yl-pyrimidine-4-carboxylic acid (5-tert-butyl-[1,3,4]thiadiazol-2-yl)-amide]",≤ 6.00
16,"COCCN(C)c1cc(C(=O)NCCN(C)C)nc(N2CCOCC2)n1 [Compound 162, 6-[(2-Methoxy-ethyl)-methyl-amino]-2-morpholin-4-yl-pyrimidine-4-carboxylic acid (2-dimethylamino-ethyl)-amide]",≤ 6.00
17,"CCc1c(C)[nH]c2ccc(NC(=O)Nc3cc(N4CCN(C(C)=O)CC4)nc(N4CCOCC4)n3)cc12 [Compound 266, 1-(6-(4-acetylpiperazin-1-yl)-2-morpholinopyrimidin-4-yl)-3-(3-ethyl-2-methyl-1H-indol-5-yl)urea]",> 6.00
18,"CCCCN(CCCC)c1cc(C(=O)Nc2ccc3[nH]c(C)c(C)c3c2)nc(N2CCOCC2)n1 [Compound 92, 6-Dibutylamino-2-morpholin-4-yl-pyrimidine-4-carboxylic acid (2,3-dimethyl-1H-indol-5-yl)-amide]",> 6.00
19,"O=C(Nc1cc(N2CCOCC2)nc(OCCc2ccccn2)n1)c1ccc2[nH]ccc2c1 [Compound 74, 1H-Indole-5-carboxylic acid [6-morpholin-4-yl-2-(2-pyridin-2-yl-ethoxy)-pyrimidin-4-yl]-amide]",≤ 6.00
20,"COCCN(C)c1cc(C(=O)Nc2nc(C(C)(C)C)cs2)nc(N2CCOCC2)n1 [Compound 201, N-(4-tert-butylthiazol-2-yl)-6-((2-methoxyethyl)(methyl)amino)-2-morpholinopyrimidine-4-carboxamide]",≤ 6.00
21,"O=C(Nc1cccc([N+](=O)[O-])c1)c1cc(OCCN2CCOCC2)nc(N2CCOCC2)n1 [Compound 276, 2-Morpholin-4-yl-6-(2-morpholin-4-yl-ethoxy)-pyrimidine-4-carboxylic acid (3-nitro-phenyl)-amide]",≤ 6.00
22,"Cc1[nH]c2ccc(NC(=O)c3cc(OCCN4CCCCC4)nc(N4CCOCC4)n3)cc2c1C [Compound 42, 2-Morpholin-4-yl-6-(2-piperidin-1-yl-ethoxy)-pyrimidine-4-carboxylic acid (2,3-dimethyl-1H-indol-5-yl)-amide]",≤ 6.00
23,"O=C(Nc1ccc2c(c1)NCCC2)c1cc(OCCN2CCOCC2)nc(N2CCOCC2)n1 [Compound 296, 2-Morpholin-4-yl-6-(2-morpholin-4-yl-ethoxy)-pyrimidine-4-carboxylic acid (1,2,3,4-tetrahydro-quinolin-7-yl)-amide]",≤ 6.00
24,"Cc1ccc(NNC(=O)c2cc(N3CCOCC3)nc(OCCN3CCOCC3)n2)cc1C [Compound 81, 6-Morpholin-4-yl-2-(2-morpholin-4-yl-ethoxy)-pyrimidine-4-carboxylic acid N′-(3,4-dimethyl-phenyl)-hydrazide]",> 6.00
25,"CN(C)c1cccc(NC(=O)c2cc(OCCN3CCOCC3)nc(N3CCOCC3)n2)c1 [Compound 26, 2-Morpholin-4-yl-6-(2-morpholin-4-yl-ethoxy)-pyrimidine-4-carboxylic acid (3-dimethylamino-phenyl)-amide]",> 6.00
